Columns and labels:
[1] = test system: pSLP76(S376) level in Jurkat cell line; experiment: Cellular pSLP76(S376) HTRF Assay; format: cell-based; details: Jurkat cells, 2 h compound treatment, stimulated with 0.05 μg/mL anti-human CD3 (OKT3) for 30 min
[2] = molecular target: HPK1 kinase (aal-346. Life Technologies) (Homo sapiens (Human), UniProt Q92918); experiment: HPK Kinase Activity Assay at 1 mM ATP (TR-FRET); format: biochemical; details: HPK1 kinase 40 nM, 0.5 μM STK1 substrate, read-out: Enzymatic activity IC50
Sequence of HPK1 kinase (aal-346. Life Technologies) (Q92918 1-346): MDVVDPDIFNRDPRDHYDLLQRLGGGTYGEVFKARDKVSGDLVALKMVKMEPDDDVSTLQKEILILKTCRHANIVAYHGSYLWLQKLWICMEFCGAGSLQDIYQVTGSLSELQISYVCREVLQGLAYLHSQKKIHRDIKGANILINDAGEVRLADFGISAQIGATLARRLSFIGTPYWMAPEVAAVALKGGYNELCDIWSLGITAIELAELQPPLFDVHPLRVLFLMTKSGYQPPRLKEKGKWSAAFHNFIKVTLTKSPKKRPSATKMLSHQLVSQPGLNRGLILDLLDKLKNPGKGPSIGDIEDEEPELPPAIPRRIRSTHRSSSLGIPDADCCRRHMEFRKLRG

IC50 ([1]; Homo sapiens, Jurkat) [nM] | IC50 [2] [nM] | Compound | IC50 [1] [nM]
111 | 34 | Cc1cc(-c2cnc(N)c(Oc3cnn(C4CCN(C)CC4)c3)n2)cc(C)c1CNC1COC1 [Example A55, 5-(3,5-dimethyl-4-((oxetan-3-ylamino)methyl)phenyl)-3-((1-(1-methylpiperidin-4-yl)-1H-pyrazol-4-yl)oxy)pyrazin-2-amine] | 
 | 82 | C[C@@H]1COCCN1c1cc(-c2cnc(N)c(Oc3cnn(C4CCN(C)CC4)c3)n2)cc(C2(O)CCCOC2)c1 (single isomer, unassigned) [Example A90A] | 
76 | 17 | Cc1cc(-c2cnc(N)c(Oc3cnn(C4CCN(C)CC4)c3)n2)cc(C)c1CNc1ncco1 [Example A67, N-(4-(5-amino-6-((1-(1-methylpiperidin-4-yl)-1H-pyrazol-4-yl)oxy)pyrazin-2-yl)-2,6-dimethylbenzyl)oxazol-2-amine] | 
176 | 35 | COc1ccc(S(=O)(=O)NCc2c(C)cc(-c3cnc(N)c(Oc4cnn(C5CCN(C)CC5)c4)n3)cc2C)cc1 [Example A39, N-(4-(5-amino-6-((1-(1-methylpiperidin-4-yl)-1H-pyrazol-4-yl)oxy)pyrazin-2-yl)-2,6-dimethylbenzyl)-4-methoxybenzenesulfonamide] | 
98 | 51 | Cc1cc(-c2cnc(N)c(Oc3cnn(C4CCN(C)CC4)c3)n2)ccc1CNS(C)(=O)=O [Example A46, N-(4-(5-amino-6-((1-(1-methylpiperidin-4-yl)-1H-pyrazol-4-yl)oxy)pyrazin-2-yl)-2-methylbenzyl)methanesulfonamide] | 
118 | 70 | Cc1cc(-c2cnc(N)c(Oc3cnn(C4CCN(C)CC4)c3)n2)cc(C(C)(C)O)c1 [Example A52, 2-(3-(5-amino-6-((1-(1-methylpiperidin-4-yl)-1H-pyrazol-4-yl)oxy)pyrazin-2-yl)-5-methylphenyl)propan-2-ol] | 
101 | 46 | Cc1cc(-c2cnc(N)c(Oc3cnn(C4CCN(C)CC4)c3)n2)cc(C)c1CNC(=O)NCC(F)(F)F [Example A51, 1-(4-(5-amino-6-((1-(1-methylpiperidin-4-yl)-1H-pyrazol-4-yl)oxy)pyrazin-2-yl)-2,6-dimethylbenzyl)-3-(2,2,2-trifluoroethyl)urea] | 
84 | 18 | Cc1cc(-c2cnc(N)c(Oc3cnn(C4CCN(C)CC4)c3)n2)cc(C2(O)CCCC2)c1 [Example A65, 1-(3-(5-amino-6-((1-(1-methylpiperidin-4-yl)-1H-pyrazol-4-yl)oxy)pyrazin-2-yl)-5-methylphenyl)cyclopentan-1-ol] | 
102 | 67 | Cc1cc(-c2cnc(N)c(Oc3cnn(C4CCN(C)CC4)c3)n2)cc(C(F)F)c1C(=O)NCCN(C)C [Example A33, 4-(5-amino-6-((1-(1-methylpiperidin-4-yl)-1H-pyrazol-4-yl)oxy)pyrazin-2-yl)-2-(difluoromethyl)-N-(2-(dimethylamino)ethyl)-6-methylbenzamide] | 
102 | 39 | Cc1cc(-c2cnc(N)c(Oc3cnn(C4CCN(C)CC4)c3)n2)cc(C)c1C1(O)COC1 [Example A63, 3-(4-(5-amino-6-((1-(1-methylpiperidin-4-yl)-1H-pyrazol-4-yl)oxy)pyrazin-2-yl)-2,6-dimethylphenyl)oxetan-3-ol] | 
82 | 30 | CNC(=O)NCc1c(C)cc(-c2cnc(N)c(Oc3cnn(C4CCN(C)CC4)c3)n2)cc1C [Example A26, 1-(4-(5-amino-6-((1-(1-methylpiperidin-4-yl)-1H-pyrazol-4-yl)oxy)pyrazin-2-yl)-2,6-dimethylbenzyl)-3-methylurea] | 
199 | 11 | CN1CCC(n2cc(Oc3nc(-c4cc(N5CCCC5=O)cc(C5(O)COC5)c4)cnc3N)cn2)CC1 [Example A91, 1-(3-(5-amino-6-((1-(1-methylpiperidin-4-yl)-1H-pyrazol-4-yl)oxy)pyrazin-2-yl)-5-(3-hydroxyoxetan-3-yl)phenyl)pyrrolidin-2-one] | 
99 | 46 | Cc1cc(-c2cnc(N)c(Oc3cnn(C4CCN(C)CC4)c3)n2)cc(S(=O)(=O)NCCN2CCCCC2)c1 [Example A9, 3-(5-amino-6-((1-(1-methylpiperidin-4-yl)-1H-pyrazol-4-yl)oxy)pyrazin-2-yl)-5-methyl-N-(2-(piperidin-1-yl)ethyl)benzenesulfonamide] | 
85 | 34 | Cc1cc(-c2cnc(N)c(Oc3cnn(C4CCN(C)CC4)c3)n2)cc(C2(O)CCCOC2)c1 (stereo not drawn) [Example A88, 3-(3-(5-amino-6-((1-(1-methylpiperidin-4-yl)-1H-pyrazol-4-yl)oxy)pyrazin-2-yl)-5-methylphenyl)tetrahydro-2H-pyran-3-ol] | 
119 | 127 | Cc1cc(CCNS(C)(=O)=O)cc(-c2cnc(N)c(Oc3cnn(C4CCN(C)CC4)c3)n2)c1 [Example A12, N-(3-(5-amino-6-((1-(1-methylpiperidin-4-yl)-1H-pyrazol-4-yl)oxy)pyrazin-2-yl)-5-methylphenethyl)methanesulfonamide] | 
35 | 6 | CNS(=O)(=O)c1cc(-c2cnc(N)c(Oc3cnn(C4CCN(C)CC4)c3)n2)cc(N2CCCC2)c1 [Example A23, 3-(5-amino-6-((1-(1-methylpiperidin-4-yl)-1H-pyrazol-4-yl)oxy)pyrazin-2-yl)-N-methyl-5-(pyrrolidin-1-yl)benzenesulfonamide] | 
54 | 9 | Cc1cc(-c2cnc(N)c(Oc3cnn(C4CCN(C)CC4)c3)n2)cc(C2(NS(C)(=O)=O)CC2)c1 [Example A11, N-(1-(3-(5-amino-6-((1-(1-methylpiperidin-4-yl)-1H-pyrazol-4-yl)oxy)pyrazin-2-yl)-5-methylphenyl)cyclopropyl)methanesulfonamide] | 
80 | 18 | CNS(=O)(=O)c1cc(OC(C)C)cc(-c2cnc(N)c(Oc3cnn(C4CCN(C)CC4)c3)n2)c1 [Example A16, 3-(5-amino-6-((1-(1-methylpiperidin-4-yl)-1H-pyrazol-4-yl)oxy)pyrazin-2-yl)-5-isopropoxy-N-methylbenzenesulfonamide; formic acid] | 
70 | 35 | Cc1cc(-c2cnc(N)c(Oc3cnn(C4CCN(C)CC4)c3)n2)cc(C)c1C(=O)NCCN1CCCCC1 [Example A5, 4-(5-amino-6-(1-(1-methylpiperidin-4-yl)-1H-pyrazol-4-yloxy)pyrazin-2-yl)-2,6-dimethyl-N-(2-(piperidin-1-yl)ethyl)benzamide] | 
120 | 139 | CNS(=O)(=O)c1cc(C)cc(-c2cnc(N)c(Oc3cnn(C4CCNCC4)c3)n2)c1 [Example A13, 3-(5-amino-6-((1-(piperidin-4-yl)-1H-pyrazol-4-yl)oxy)pyrazin-2-yl)-N,5-dimethylbenzenesulfonamide] | 
34 | 14 | CNS(=O)(=O)c1cc(C)cc(-c2cnc(N)c(Oc3cnn(C4CCN(C)CC4)c3)n2)c1 [Example A2, 3-(5-amino-6-((1-(1-methylpiperidin-4-yl)-1H-pyrazol-4-yl)oxy)pyrazin-2-yl)-N,5-dimethylbenzenesulfonamide] | 
156 | 7 | Cc1cc(-c2cnc(N)c(Oc3cnn(C4CCN(C)CC4)c3)n2)cc(C2(O)CCOC2)c1N1CC2(CCOCC2)C1 (stereo not drawn) [Example A92, 3-(5-(5-amino-6-((1-(1-methylpiperidin-4-yl)-1H-pyrazol-4-yl)oxy)pyrazin-2-yl)-3-methyl-2-(7-oxa-2-azaspiro[3.5]nonan-2-yl)phenyl)tetrahydrofuran-3-ol] | 
51 | 8.2 | C[C@@H]1COCCN1c1cc(-c2cnc(N)c(Oc3cnn(C4CCN(C)CC4)c3)n2)cc(C2(O)COC2)c1 [Example A59, (R)-3-(3-(5-amino-6-((1-(1-methylpiperidin-4-yl)-1H-pyrazol-4-yl)oxy)pyrazin-2-yl)-5-(3-methylmorpholino)phenyl)oxetan-3-ol] | 
73 | 9.2 | CN1CCC(n2cc(Oc3nc(-c4cc(N5CCCOCC5)cc(C5(O)CCOC5)c4)cnc3N)cn2)CC1 (stereo not drawn) [Example A98, 3-(3-(5-amino-6-((1-(1-methylpiperidin-4-yl)-1H-pyrazol-4-yl)oxy)pyrazin-2-yl)-5-(1,4-oxazepan-4-yl)phenyl)tetrahydrofuran-3-ol] | 
35 | 44 | Cc1cc(-c2cnc(N)c(Oc3cnn(C4CCN(C)CC4)c3)n2)cc(S(N)(=O)=O)c1 [Example A6, 3-(5-amino-6-((1-(1-methylpiperidin-4-yl)-1H-pyrazol-4-yl)oxy)pyrazin-2-yl)-5-methylbenzenesulfonamide] | 
164 | 37 | Cc1cc(-c2cnc(N)c(Oc3cnn(C4CCN(C)CC4)c3)n2)cc(C2(O)CCOC2)c1F (stereo not drawn) [Example A93, 3-(5-(5-amino-6-((1-(1-methylpiperidin-4-yl)-1H-pyrazol-4-yl)oxy)pyrazin-2-yl)-2-fluoro-3-methylphenyl)tetrahydrofuran-3-ol] | 
 | 253 | Cc1cc(-c2cnc(N)c(Oc3cnn(C4CCN(C)CC4)c3)n2)cc([C@H]2CCC(=O)N2)c1 [Example A61A, (R)-5-(3-(5-amino-6-((1-(1-methylpiperidin-4-yl)-1H-pyrazol-4-yl)oxy)pyrazin-2-yl)-5-methylphenyl)pyrrolidin-2-one] | 
 | 4.5 | CC1OCCC1(O)c1cc(-c2cnc(N)c(Oc3cnn(C4CCN(C)CC4)c3)n2)cc(N2CCOC[C@H]2C)c1 (single isomer, unassigned) [Example A95B] | 

Compound | IC50 ([1]; Homo sapiens, Jurkat) [nM] | IC50 [2] [nM] | IC50 [1] [nM]
Cc1cc(-c2cnc(N)c(Oc3cnn(C4CCN(C)CC4)c3)n2)cc([Si](C)(C)O)c1 [Example A50, (3-(5-amino-6-((1-(1-methylpiperidin-4-yl)-1H-pyrazol-4-yl)oxy)pyrazin-2-yl)-5-methylphenyl)dimethylsilanol] | 95 | 18 | 
Cc1cc(-c2cnc(N)c(Oc3cnn(C4CCN(C)CC4)c3)n2)cc([C@@]2(O)CCOC2)c1 (single isomer, unassigned) [Example A74A] |  | 46 | 85
